pIC50: −log10 of the molar value.
Experiments:
Homo sapiens = organism: Homo sapiens; assay: Selectivity index, ratio of IC50 for human CYP24A1 to IC50 for human CYP27B1
[1] = biological target: T1, 1,25-dihydroxyvitamin D(3) 24-hydroxylase, mitochondrial (Homo sapiens, UniProt Q07973); assay: Inhibition of N-terminal MBP-tagged human CYP24A1 expressed in Escherichia coli assessed as reduction in […] activity incubated for 25 mins using Adx, AdR and 1,25(OH)2D3
T1 sequence (Q07973 whole entry): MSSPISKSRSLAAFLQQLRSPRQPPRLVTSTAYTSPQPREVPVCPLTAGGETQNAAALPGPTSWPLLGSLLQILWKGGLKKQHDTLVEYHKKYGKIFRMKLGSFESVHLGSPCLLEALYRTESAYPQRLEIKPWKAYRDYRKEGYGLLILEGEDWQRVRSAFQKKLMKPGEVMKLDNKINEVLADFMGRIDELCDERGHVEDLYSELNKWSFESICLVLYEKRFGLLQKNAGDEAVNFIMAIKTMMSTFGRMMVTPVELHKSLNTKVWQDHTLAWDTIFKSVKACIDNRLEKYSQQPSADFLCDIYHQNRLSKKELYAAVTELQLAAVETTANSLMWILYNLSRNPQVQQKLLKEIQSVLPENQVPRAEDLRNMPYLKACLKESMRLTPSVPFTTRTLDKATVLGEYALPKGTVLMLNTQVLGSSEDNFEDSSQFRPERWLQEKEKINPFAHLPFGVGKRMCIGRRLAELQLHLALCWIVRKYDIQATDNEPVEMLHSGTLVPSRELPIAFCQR

[2] = biological target: T2, 25-hydroxyvitamin D-1 alpha hydroxylase, mitochondrial (Homo sapiens, UniProt O15528); assay: Inhibition of human CYP27B1 expressed in Escherichia coli assessed as reduction in […] activity incubated for 25 mins using Adx, AdR and […]
T2 sequence (O15528 whole entry): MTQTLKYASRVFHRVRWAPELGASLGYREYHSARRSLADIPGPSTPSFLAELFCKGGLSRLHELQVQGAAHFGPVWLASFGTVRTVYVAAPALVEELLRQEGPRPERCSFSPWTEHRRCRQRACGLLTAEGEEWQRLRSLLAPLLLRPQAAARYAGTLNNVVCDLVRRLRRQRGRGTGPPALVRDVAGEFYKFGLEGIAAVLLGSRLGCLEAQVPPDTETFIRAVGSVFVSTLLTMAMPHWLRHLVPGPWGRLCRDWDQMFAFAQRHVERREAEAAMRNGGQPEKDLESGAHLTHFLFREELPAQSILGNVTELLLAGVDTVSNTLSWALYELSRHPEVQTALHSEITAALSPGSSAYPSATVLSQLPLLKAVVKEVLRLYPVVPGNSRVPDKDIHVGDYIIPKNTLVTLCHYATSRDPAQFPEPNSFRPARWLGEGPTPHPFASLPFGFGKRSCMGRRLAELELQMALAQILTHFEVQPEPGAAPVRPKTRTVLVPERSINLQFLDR

[3] = biological target: T1, 1,25-dihydroxyvitamin D(3) 24-hydroxylase, mitochondrial; assay: Inhibition of human CYP24A1
[4] = biological target: T2, 25-hydroxyvitamin D-1 alpha hydroxylase, mitochondrial; assay: Inhibition of human CYP27B1

| Structure (SMILES) | Ratio IC50 (Homo sapiens) | pIC50 [1] | pIC50 [2] | pIC50 [3] | pIC50 [4] |
| --- | --- | --- | --- | --- | --- |
| Cc1[nH]nc(O)c1C(c1ccc(OCc2ccncc2)cc1)c1c(O)n[nH]c1C | 5 | 5.60 | 6.24 | – | – |
| Cc1[nH]nc(O)c1C(c1cccc(OCc2ccncc2)c1)c1c(O)n[nH]c1C | 5 | 5.59 | 6.39 | – | – |
| CN(C)c1cccc2c(S(=O)(=O)NC(Cn3ccnc3)c3ccc(Cl)cc3Cl)cccc12 (configuration not stated) | 47 | – | – | 5.35 | 7.02 |
| CN(C)CCn1nnnc1SCC(O)(Cn1ccnc1)c1ccc(Cl)cc1Cl (configuration not stated) | 66 | – | – | < 5.00 | 7.22 |

Reference: ChEMBL document CHEMBL4043218, “Analysis of the binding sites of vitamin D 1α-hydroxylase (CYP27B1) and vitamin D 24-hydroxylase (CYP24A1) for the design of selective CYP24A1 inhibitors: Homology modelling, molecular dynamics simulations and identification of key binding requirements” (Bioorg Med Chem, 2017)
